EC50 data for two compounds are collected here from US10329256B2, “(Hetero)aryl cyclopropylamine compounds as LSD1 inhibitors” (Oryzon Genomics, S.A., priority 2011, dated 2019).

This assay concerns THP-1 cells. The assay is described as follows: cells. It is filed as cell-based. As to conditions: Homo sapiens, THP-1, 96 h. As to the method:
By analyzing the induction of CD11b membrane expression on THP-1 cells we are assessing the ability of LSD1 inhibitors to induce terminal monocytic differentiation of a MLL-AF9 AML cell line.
They carry t(9; 11)(p21; q23) leading to MLL-MLLT3 (MLL-AF9) fusion gene. This cell line can undergo monocytic differentiation upon treatment with the appropriate stimulus.
In this assay, 150,000 THP-1 cells were seeded in 1 ml of complete culture medium in 6-well tissue culture plates. Serial dilutions of the compounds were prepared in DMSO and then further diluted in complete medium to generate solutions of concentrations that are double of the final concentration at which the cells will be exposed. 1 ml of these 2× concentrated solutions was added to the cells.
Cells were kept in the presence of compounds for 96 h at a 5% CO2 atmosphere at 37° C. After this treatment period, cells were harvested, washed twice with PBS buffer and placed in a V-bottom 96-well plate. Each treated sample was split in two.
Percentage of CD11b positive cells, as an indicator of monocytic differentiation, was determined compared to isotype control antibody stained cells. EC50 values were calculated by non-linear regression analysis.

The structures appear in SMILES notation. Where a name gives a salt, the structure may show the parent alone.

As usually defined, the EC50 is the concentration needed to bring the measured effect to its halfway point. Lower therefore signals greater potency. For the compound `c1ccc([C@H]2C[C@@H]2NC2CCNCC2)cc1` (racemic) [Example 1, N-((trans)-2-phenylcyclopropyl)piperidin-4-amine hydrochloride], the EC50 was determined as 2.1 nM. Compound `c1ccc([C@@H]2C[C@H]2NC2CCNCC2)cc1` [Example 3, N-((1R,2S)-2-phenylcyclopropyl)piperidin-4-amine hydrochloride] showed an EC50 of 0.8 nM.
